Experimental data: patent publication US20230295200A1 (REGENTS OF THE UNIVERSITY OF MICHIGAN, priority 2022, published 2023)
pKi: −log10 of the molar value.

What follows are compounds tested against T1, STAT6 protein (Homo sapiens, UniProt P42226) (assay: Fluorescence polarization (FP) binding assay, STAT6). Conditions: FP competition, 5 nM fluorescein-labeled tracer, 200 nM protein, PBS pH7.4; read-out: Binding STAT6.
T1 sequence (P42226 1-847): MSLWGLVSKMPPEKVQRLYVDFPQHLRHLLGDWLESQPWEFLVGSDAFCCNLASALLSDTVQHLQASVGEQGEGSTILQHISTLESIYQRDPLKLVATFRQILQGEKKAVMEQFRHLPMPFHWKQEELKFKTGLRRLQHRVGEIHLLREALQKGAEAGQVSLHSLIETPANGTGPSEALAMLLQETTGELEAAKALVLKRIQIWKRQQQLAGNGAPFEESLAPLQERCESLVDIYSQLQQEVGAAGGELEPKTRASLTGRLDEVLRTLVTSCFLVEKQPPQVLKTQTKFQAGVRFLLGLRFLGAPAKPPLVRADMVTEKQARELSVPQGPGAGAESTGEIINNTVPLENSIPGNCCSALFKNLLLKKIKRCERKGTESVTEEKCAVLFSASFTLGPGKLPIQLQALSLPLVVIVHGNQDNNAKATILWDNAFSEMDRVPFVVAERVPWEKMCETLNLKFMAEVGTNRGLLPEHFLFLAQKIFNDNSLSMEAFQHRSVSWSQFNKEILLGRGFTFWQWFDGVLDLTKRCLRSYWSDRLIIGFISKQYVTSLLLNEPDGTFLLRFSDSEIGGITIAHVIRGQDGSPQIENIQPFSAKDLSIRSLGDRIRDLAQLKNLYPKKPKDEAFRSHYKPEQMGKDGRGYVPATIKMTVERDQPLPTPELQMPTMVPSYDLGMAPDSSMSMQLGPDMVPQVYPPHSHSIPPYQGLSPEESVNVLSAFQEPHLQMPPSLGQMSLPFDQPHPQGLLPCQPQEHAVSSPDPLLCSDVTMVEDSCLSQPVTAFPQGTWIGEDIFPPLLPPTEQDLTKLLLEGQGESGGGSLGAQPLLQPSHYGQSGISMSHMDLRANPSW
In short: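 Each well holds 200 nM STAT5 and/or STAT6 with 5 nM fluorescent tracer in PBS pH 7.4 (0.01% BGG, 0.01% Tween-20, 2 mM DTT). Binding reaches equilibrium over 1 h at room temperature after brief shaking, and polarization data are fitted nonlinearly.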

pKi | SMILES
< 5.00 | CC(C)C(=O)N1CC[C@H]2CC[C@@H](C(=O)N3CCc4ccccc4C3)N2C(=O)[C@@H](NC(=O)c2cc3cc(C(F)(F)P(=O)(O)O)ccc3[nH]2)C1 [Compound 364, (difluoro(2-(((5S,8S,10aR)-3-isobutyryl-6-oxo-8-(1,2,3,4-tetrahydroisoquinoline-2-carbonyl)decahydropyrrolo[1,2-a][1,5]diazocin-5-yl)carbamoyl)-1H-indol-5-yl)methyl)phosphonic acid]
< 5.00 | CN1CCC(C(=O)N2CC[C@H]3CC[C@@H](C(=O)N4CCc5ccccc5C4)N3C(=O)[C@@H](NC(=O)c3cc4cc(C(F)(F)P(=O)(O)O)ccc4[nH]3)C2)CC1 [Compound 365, (difluoro(2-(((5S,8S,10aR)-3-(1-methylpiperidine-4-carbonyl)-6-oxo-8-(1,2,3,4-tetrahydroisoquinoline-2-carbonyl)decahydropyrrolo[1,2-a][1,5]diazocin-5-yl)carbamoyl)-1H-indol-5-yl)methyl)phosphonic acid]
< 5.00 | CC(=O)N1CC[C@H]2CC[C@@H](C(=O)N3CCc4cc(Cl)ccc4C3)N2C(=O)[C@@H](NC(=O)c2cc3cc(C(F)(F)P(=O)(O)O)ccc3[nH]2)C1 [Compound 366, ((2-(((5S,8S,10aR)-3-acetyl-8-(6-chloro-1,2,3,4-tetrahydroisoquinoline-2-carbonyl)-6-oxodecahydropyrrolo[1,2-a][1,5]diazocin-5-yl)carbamoyl)-1H-indol-5-yl)difluoromethyl)phosphonic acid]
< 5.00 | CC(=O)N1CC[C@H]2CC[C@@H](C(=O)N3CCOCC3)N2C(=O)[C@@H](NC(=O)c2cc3cc(C(F)(F)P(=O)(O)O)ccc3[nH]2)C1 [Compound 367, ((2-(((5S,8S,10aR)-3-acetyl-8-(morpholine-4-carbonyl)-6-oxodecahydropyrrolo[1,2-a][1,5]diazocin-5-yl)carbamoyl)-1H-indol-5-yl)difluoromethyl)phosphonic acid]
< 5.00 | CC(=O)N1CC[C@H]2CC[C@@H](C(=O)N3CCCOCC3)N2C(=O)[C@@H](NC(=O)c2cc3cc(C(F)(F)P(=O)(O)O)ccc3[nH]2)C1 [Compound 368, ((2-(((5S,8S,10aR)-3-acetyl-8-(1,4-oxazepane-4-carbonyl)-6-oxodecahydropyrrolo[1,2-a][1,5]diazocin-5-yl)carbamoyl)-1H-indol-5-yl)difluoromethyl)phosphonic acid]
< 5.00 | CC(=O)N1CC[C@H]2CC[C@@H](C(=O)N3CCCc4ccccc4C3)N2C(=O)[C@@H](NC(=O)c2cc3cc(C(F)(F)P(=O)(O)O)ccc3[nH]2)C1 [Compound 369, ((2-(((5S,8S,10aR)-3-acetyl-6-oxo-8-(2,3,4,5-tetrahydro-1H-benzo[c]azepine-2-carbonyl)decahydropyrrolo[1,2-a][1,5]diazocin-5-yl)carbamoyl)-1H-indol-5-yl)difluoromethyl)phosphonic acid]
5.00 to 6.00 | CC(=O)N1CC[C@H]2CC[C@@H](C(=O)N(c3ccccc3)c3ccc(Br)cc3)N2C(=O)[C@@H](NC(=O)c2cc3cc(C(F)(F)P(=O)(O)O)ccc3[nH]2)C1 [Compound 370, ((2-(((5S,8S,10aR)-3-acetyl-8-((4-bromophenyl)(phenyl)carbamoyl)-6-oxodecahydropyrrolo[1,2-a][1,5]diazocin-5-yl)carbamoyl)-1H-indol-5-yl)difluoromethyl)phosphonic acid]
< 5.00 | CC(=O)N1CC[C@H]2CC[C@@H](C(=O)N(c3ccc(Cl)cc3)C3CCCCC3)N2C(=O)[C@@H](NC(=O)c2cc3cc(C(F)(F)P(=O)(O)O)ccc3[nH]2)C1 [Compound 371, ((2-(((5S,8S,10aR)-3-acetyl-8-((4-chlorophenyl)(cyclohexyl)carbamoyl)-6-oxodecahydropyrrolo[1,2-a][1,5]diazocin-5-yl)carbamoyl)-1H-indol-5-yl)difluoromethyl)phosphonic acid]
< 5.00 | CC(=O)N1CC[C@H]2CC[C@@H](C(=O)N3CCOc4ccccc43)N2C(=O)[C@@H](NC(=O)c2cc3cc(C(F)(F)P(=O)(O)O)ccc3[nH]2)C1 [Compound 372, ((2-(((5S,8S,10aR)-3-acetyl-8-(3,4-dihydro-2H-benzo[b][1,4]oxazine-4-carbonyl)-6-oxodecahydropyrrolo[1,2-a][1,5]diazocin-5-yl)carbamoyl)-1H-indol-5-yl)difluoromethyl)phosphonic acid]
5.00 to 6.00 | CC(=O)N1CC[C@H]2CC[C@@H](C(=O)N3CCc4cc(I)ccc4C3)N2C(=O)[C@@H](NC(=O)c2cc3cc(C(F)(F)P(=O)(O)O)ccc3[nH]2)C1 [Compound 373, ((2-(((5S,8S,10aR)-3-acetyl-8-(6-iodo-1,2,3,4-tetrahydroisoquinoline-2-carbonyl)-6-oxodecahydropyrrolo[1,2-a][1,5]diazocin-5-yl)carbamoyl)-1H-indol-5-yl)difluoromethyl)phosphonic acid]
< 5.00 | CC(=O)N1CC[C@H]2CC[C@@H](C(=O)N3CCc4ccccc4CC3)N2C(=O)[C@@H](NC(=O)c2cc3cc(C(F)(F)P(=O)(O)O)ccc3[nH]2)C1 [Compound 374, ((2-(((5S,8S,10aR)-3-acetyl-6-oxo-8-(2,3,4,5-tetrahydro-1H-benzo[d]azepine-3-carbonyl)decahydropyrrolo[1,2-a][1,5]diazocin-5-yl)carbamoyl)-1H-indol-5-yl)difluoromethyl)phosphonic acid]
< 5.00 | CC(=O)N1CC[C@H]2CC[C@@H](C(=O)N(C)c3ccc(Cl)cc3)N2C(=O)[C@@H](NC(=O)c2cc3cc(C(F)(F)P(=O)(O)O)ccc3[nH]2)C1 [Compound 375, ((2-(((5S,8S,10aR)-3-acetyl-8-((4-chlorophenyl)(methyl)carbamoyl)-6-oxodecahydropyrrolo[1,2-a][1,5]diazocin-5-yl)carbamoyl)-1H-indol-5-yl)difluoromethyl)phosphonic acid]
< 5.00 | CC(=O)N1CC[C@H]2CC[C@@H](C(=O)N(C)c3ccc(F)cc3)N2C(=O)[C@@H](NC(=O)c2cc3cc(C(F)(F)P(=O)(O)O)ccc3[nH]2)C1 [Compound 376, ((2-(((5S,8S,10aR)-3-acetyl-8-((4-fluorophenyl)(methyl)carbamoyl)-6-oxodecahydropyrrolo[1,2-a][1,5]diazocin-5-yl)carbamoyl)-1H-indol-5-yl)difluoromethyl)phosphonic acid]
< 5.00 | CC(=O)N1CC[C@H]2CC[C@@H](C(=O)N3Cc4ccc(Cl)cc4C3)N2C(=O)[C@@H](NC(=O)c2cc3cc(C(F)(F)P(=O)(O)O)ccc3[nH]2)C1 [Compound 377, ((2-(((5,8S,10aR)-3-acetyl-8-(5-chloroisoindoline-2-carbonyl)-6-oxodecahydropyrrolo[1,2-a][1,5]diazocin-5-yl)carbamoyl)-1H-indol-5-yl)difluoromethyl)phosphonic acid]
< 5.00 | CC(=O)N1CC[C@H]2CC[C@@H](C(=O)N3Cc4cccc(Cl)c4C3)N2C(=O)[C@@H](NC(=O)c2cc3cc(C(F)(F)P(=O)(O)O)ccc3[nH]2)C1 [Compound 378, ((2-(((5S,8S,10aR)-3-acetyl-8-(4-chloroisoindoline-2-carbonyl)-6-oxodecahydropyrrolo[1,2-a][1,5]diazocin-5-yl)carbamoyl)-1H-indol-5-yl)difluoromethyl)phosphonic acid]
< 5.00 | CN(C(=O)[C@@H]1CC[C@@H]2CCC[C@H](NC(=O)c3cc4cc(C(F)(F)P(=O)(O)O)ccc4s3)C(=O)N21)c1ccc(Cl)cc1 [Compound 379, ((2-(((3S,6S,9aS)-3-((4-chlorophenyl)(methyl)carbamoyl)-5-oxooctahydro-1H-pyrrolo[1,2-a]azepin-6-yl)carbamoyl)benzo[b]thiophen-5-yl)difluoromethyl)phosphonic acid]
< 5.00 | CN(C(=O)[C@@H]1CC[C@H]2CCC[C@H](NC(=O)c3cc4cc(C(F)(F)P(=O)(O)O)ccc4s3)C(=O)N21)c1ccc(Cl)cc1 [Compound 380, ((2-(((3S,65,9aR)-3-((4-chlorophenyl)(methyl)carbamoyl)-5-oxooctahydro-1H-pyrrolo[1,2-a]azepin-6-yl)carbamoyl)benzo[b]thiophen-5-yl)difluoromethyl)phosphonic acid]
< 5.00 | CC(=O)N1CC[C@H]2CC[C@@H](C(=O)N3CCCCC3)N2C(=O)[C@@H](NC(=O)c2cc3cc(C(F)(F)P(=O)(O)O)ccc3s2)C1 [Compound 381, ((2-(((5S,8S,10aR)-3-acetyl-6-oxo-8-(piperidine-1-carbonyl)decahydropyrrolo[1,2-a][1,5]diazocin-5-yl)carbamoyl)benzo[b]thiophen-5-yl)difluoromethyl)phosphonic acid]
